Data set [1] can be described thus: Solubility enhancement of astaxanthin in water solutions of the compounds (HPLC). Conditions: water solution containing 5 mg/mL of compound, excess astaxanthin (1 mg/mL), room temperature, 24 hours, 0.45 μm filter.
Description: The suspension was mixed using a laboratory shaker at room temperature for 24 hours. The concentration (mg/mL) of solubilized astaxanthin was determined by HPLC analysis. The sample was prepared for chromatographic analysis by filtering through a 0.45 μm MCE filter.
An X-Bridge™ Shield RP18 column (4.6×150 mm) was used. A suitable HPLC analytical method was developed for quantitating the amount of astaxanthin in solution.
The absorbance was monitored at 489 nm and the injection volume was 6 μL. In these chromatographic conditions, astaxanthin was eluted in about 4.0 minutes.
An appropriate dilution of each sample was made with dimethylsulfoxide, such that astaxanthin final concentration was within the linear portion of the standard curve, prior to injection onto the HPLC column.
The amount of astaxanthin in mg/mL was calculated by introducing the analyte peak area in the calibration curve fit-equation and multiplying the result by the dilution factor.
For data set [2] the following is noted: β-carotene alone; cited from earlier work.
Data set [3] is described as follows: Solubility enhancement of β-carotene in water solutions of the compounds (HPLC). Conditions: 5 mg/mL compound in water, excess β-carotene.
Description: The suspensions were left under stirring for 24 hours. Solutions A to N were obtained.
The suspensions were left under stirring for 24 hours. Solutions O to R were obtained.
An excess amount of β-carotene (5 mg/mL) was added to 1 mL of each solution A to R. The suspension was mixed using a laboratory shaker at room temperature for 24 hours. The concentration (mg/mL) of solubilized β-carotene was determined by HPLC analysis. The sample was prepared for chromatographic analysis by filtering through a 0.45 μm MCE filter.
An X-Bridge™ Shield RP18 column (4.6×150 mm) was used. A suitable HPLC analytical method was developed for quantitating the amount of drug in solution.
An appropriate dilution of each sample was made with dimethylsulfoxide, such that β-carotene final concentration was within the linear portion of the standard curve, prior to injection onto the HPLC column.
The amount of β-carotene in mg/mL was calculated by introducing the analyte peak area in the calibration curve fit-equation and multiplying the result by the dilution factor.

With `OC[C@H]1O[C@@H]2O[C@H]3[C@H](O)[C@@H](O)[C@@H](O[C@H]4[C@H](O)[C@@H](O)[C@@H](O[C@H]5[C@H](O)[C@@H](O)[C@@H](O[C@H]6[C@H](O)[C@@H](O)[C@@H](O[C@H]7[C@H](O)[C@@H](O)[C@@H](O[C@H]8[C@H](O)[C@@H](O)[C@@H](O[C@H]9[C@H](O)[C@@H](O)[C@@H](O[C@H]1[C@H](O)[C@H]2O)O[C@@H]9CO)O[C@@H]8CO)O[C@@H]7CO)O[C@@H]6CO)O[C@@H]5CO)O[C@@H]4CO)O[C@@H]3CO` [Compound 14, γ-cyclodextrin (CAVAMAX W8)], the “Aqueous solubility of astaxanthin in the presence of the compound” value in data set [1] worked out at 1.2 µg/mL.
Same read-out and setting: to `OC[C@H]1O[C@@H]2O[C@H]3[C@H](O)[C@@H](O)[C@@H](O[C@H]4[C@H](O)[C@@H](O)[C@@H](O[C@H]5[C@H](O)[C@@H](O)[C@@H](O[C@H]6[C@H](O)[C@@H](O)[C@@H](O[C@H]7[C@H](O)[C@@H](O)[C@@H](O[C@H]8[C@H](O)[C@@H](O)[C@@H](O[C@H]1[C@H](O)[C@H]2O)O[C@@H]8CO)O[C@@H]7CO)O[C@@H]6CO)O[C@@H]5CO)O[C@@H]4CO)O[C@@H]3CO` [Compound 15, β-cyclodextrin (CAVAMAX W7)] belongs 0.5 µg/mL.
With `CC1=C(/C=C/C(C)=C/C=C/C(C)=C/C=C/C=C(C)/C=C/C=C(C)/C=C/C2=C(C)CCCC2(C)C)C(C)(C)CCC1` [β-carotene], the Water solubility result in data set [2] is listed as “below 1 mg/L”.
Consider “HP-β-cyclodextrin (CAVASOL W7 HP) [Compound 16]”, for which the “Aqueous solubility of astaxanthin in the presence of the compound” value in data set [1] is 0.7 µg/mL. For the same molecule, in data set [3], the “Visual aspect of the solution with β-carotene” value is “pale pink color”.

The values above are taken from patent US10662259B2, “Glycogen-based water solubility enhancers” (AZIENDE CHIMICHE RIUNITE ANGELINI FRANCESCO A.C.R.A.F. …, priority 2013, dated 2020).
